Measurements as given in patent publication US20110028463A1, “AMIDE COMPOUNDS” (Astellas Pharma Inc., priority 2007, published 2011).

What follows are compounds tested against T1, rat EP4 receptor (Rattus norvegicus, UniProt P43114) (assay: Evaluation test on rat EP4 receptor affinity ([3H]PGE2 binding assay)). Settings: [3H]PGE2 0.3 nM; membrane fraction of HEK293 cells expressing rat EP4; room temperature, 1 hour.
T1 construct: expressed in transfected cells; host or cells: HEK293
Experimental: Evaluation Test on Rat EP4 Receptor Affinity
Cell Culture and Transfection
Using a 10 cm collagen-coated dish (Asahi Glass), HEK293 cells were cultured in a D-MEM culture medium, the culture medium was removed at a confluence (90 to 100% density state) and washed with a phosphate-buffered saline (PBS), and then the cells were detached with N,N,N′,N′-tetrakis(carboxymethyl)ethylenediamine (EDTA). The number of the cells were counted and seeded on a 15 cm collagen-coated dish to a confluence of 70%. The next day, to an Opti-MEM culture medium at 1.2 mL/dish was added Lipofectamine 2000 (Invitrogen) at 60 μL/dish, followed by being left to stand at room temperature for 5 minutes. A plasmid in which a rat EP4 (sequence number 1) had been inserted into a TA cloning site of pcDNA3.1-V5-His-topo was added thereto at 15 μg/dish. After leaving it to stand at room temperature for 30 minutes, the resultant was added to the dish and cultured for 20 to 24 hours. The cell culture was carried out in a CO2 incubator (37° C., 5% CO2).
Preparation of Membrane Fraction
The culture medium was removed by suction, 10 mL of cooled PBS was added thereto per 15 cm dish, and the cells were scraped using a cell scraper (Sumitomo Bakelite). After washing with cooled PBS (1,200 rpm, 4° C., 5 min), and then suspended in 6 mL of cooled 20 mM Tris-HCl (pH 7.4; Nakalai Tesque Inc., including 5 mM EDTA (Nakalai Tesque Inc.) per dish and homogenized using a Polytron, the homogenate was centrifuged (26,000 rpm, 20 min, 4° C.). The obtained precipitate was resuspended in cooled 20 mM Tris-HCl and homogenized again using a Polytron, and the homogenate was centrifuged (26,000 rpm, 20 min, 4° C.). The obtained precipitate was resuspended in 50 mM HEPES (pH 7.5; Dojindo Laboratories) to 1 mL per dish, homogenized using a Polytron, and freeze-stored at −80° C. as a membrane fraction. At this time, a part thereof was used for the measurement of the protein concentration. Measurement of the protein concentration was carried out using a Bio-Rad Protein assay kit (Bio-Rad Laboratories) in accordance with the appended standard Protocol in duplicate.
[^3H] PGE2 μL (final concentration 0.3 nM; Perkin Elmer), 100 μL (20 μg/well) of a membrane fraction prepared from the rat EP4 expression cell and 50 μL of a test compound were mixed in a 96-well microplate (Sumitomo Bakelite), incubated at room temperature for 1 hour, filtered by suction on a UniFilter-96 GF/B (Perkin Elmer) using a FilterMate Harvester (Perkin Elmer), and then washed three times with 300 μL/well of a cooled assay buffer. Dilution of [^3H]PGE2 and the membrane fraction was carried out using an assay buffer (50 mM HEPES, 10 mM MgCl2), and dilution of the test compound and the unlabeled PGE2 was carried out using DMSO and the assay buffer. Further, in the case a human serum albumin (HSA) is added, dilution was carried out using an assay buffer containing 4% HSA (final concentration 1%; Sigma). The UniFilter-96 GF/B was treated by preliminarily washing twice with 200 μL/well of a cooled assay buffer. The UniFilter-96 GF/B after filtration was dried in a dryer overnight, 50 μL/well of MicroScint20 (Perkin Elmer) was added thereto, and then the radioactivity was measured using a TopCount (Perkin Elmer). For measurement of the non-specific binding, an unlabeled PGE2 (final concentration 1 μM; Cayman) was added. All of the measurements were carried out in duplicate, and the specific binding amount was determined by subtracting the non-specific binding amount from the total binding amount.
According to Test method as above, the rat EP4 receptor affinity (Ki) of the compound of the formula (I) was measured. Ex represents Example Compound number.

T1 sequence (P43114 whole entry): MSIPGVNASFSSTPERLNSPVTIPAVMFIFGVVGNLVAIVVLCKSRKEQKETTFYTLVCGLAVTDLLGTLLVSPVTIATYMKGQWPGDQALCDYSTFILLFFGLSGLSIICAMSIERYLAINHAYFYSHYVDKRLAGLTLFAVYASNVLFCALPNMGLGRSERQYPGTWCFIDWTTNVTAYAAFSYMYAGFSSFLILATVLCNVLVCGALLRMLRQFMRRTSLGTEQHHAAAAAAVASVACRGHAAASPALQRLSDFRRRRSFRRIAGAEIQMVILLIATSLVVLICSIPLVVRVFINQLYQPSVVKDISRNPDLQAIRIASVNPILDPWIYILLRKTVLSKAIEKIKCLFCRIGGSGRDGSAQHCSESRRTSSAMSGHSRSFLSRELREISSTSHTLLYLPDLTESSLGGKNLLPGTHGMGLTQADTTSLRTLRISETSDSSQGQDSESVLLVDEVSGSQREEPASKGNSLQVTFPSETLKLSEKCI

| SMILES | Ki |
| --- | --- |
| O=C(O)c1ccc2c(ccn2NC(=O)c2ccccc2Cc2ccc(Cl)cc2)c1 [Example 4, 1-{[2-(4-chlorobenzyl)benzoyl]amino}-1H-indole-5-carboxylic acid] | 7.5 nM |
| C[C@H](NC(=O)c1sccc1N(C)Cc1ccc(Cl)cc1)c1ccc(C(=O)O)cc1 [Example 7] | 16 nM |
| CN(NC(=O)c1cccc2ccn(Cc3ccc(Cl)cc3)c12)c1ccc(C(=O)O)cc1 [Example 8] | 0.8 nM |
| C[C@H](NC(=O)c1cccc2ccn(Cc3ccc(Cl)cc3)c12)c1ccc(-c2noc(=O)[nH]2)cc1 [Example 15] | 3.5 nM |
| C[C@H](NC(=O)c1cc(Cl)cc2ccn(Cc3ccc(Cl)cc3)c12)c1ccc(C(=O)O)cc1 [Example 21] | 0.51 nM |
| C[C@H](NC(=O)c1cccc2c1N(Cc1ccc(Cl)cc1)CC2)c1ccc(C(=O)O)cc1 [Example 22] | 0.79 nM |
| CN(NC(=O)c1cc(Cl)cc2ccn(Cc3ccc(Cl)cc3)c12)c1ccc(C(=O)O)cc1 [Example 31] | 0.83 nM |
| C[C@H](NC(=O)c1cc2ccccc2n1Cc1ccc(Cl)cc1)c1ccc(C(=O)O)cc1 [Example 37] | 9.9 nM |
| C[C@H](NC(=O)c1cccn1Cc1ccc(Cl)cc1)c1ccc(C(=O)O)cc1 [Example 39] | 37 nM |
| C[C@H](NC(=O)c1cccc2nc(Nc3ccc(Cl)cc3)oc12)c1ccc(C(=O)O)cc1 [Example 46] | 11 nM |
| C[C@H](NC(=O)c1cccc2cnn(Cc3ccc(Cl)cc3)c12)c1ccc(C(=O)O)cc1 [Example 47] | 5.5 nM |
| C[C@H](NC(=O)c1ccccc1-n1ccc2cc(Cl)ccc21)c1ccc(C(=O)O)cc1 [Example 50] | 15 nM |
| C[C@H](NC(=O)c1cccc2ccn(Cc3ccc4ccccc4n3)c12)c1ccc(C(=O)O)cc1 [Example 57] | 1.6 nM |
| CC(NC(=O)c1cccc2ccn(Cc3ccc(Cl)cc3)c12)[C@H]1CC[C@H](C(=O)O)CC1 (stereo partly shown) [Example 61] | 12 nM |
| O=C(NCC1CCC(C(=O)O)CC1)c1cccc2ccn(Cc3ccc(Cl)cc3)c12 (stereo not shown) [Example 110] | 12 nM |
| O=C(O)c1ccc(CNC(=O)c2cccc3ccn(Cc4ccc(Cl)cc4)c23)cc1 [Example 111] | 2.6 nM |
